The source of these data is PMC12294558, “New 1,2,4-Triazole Derivatives with a N-Mannich Base Structure Based on a 4,6-Dimethylpyridine Scaffold as Anticancer Agents: Design, Synthesis, Biological Evaluation, and Molecular Modeling” (International Journal of Molecular Sciences, 2025).

One series has as its system Caco-2 cells. Description: MTT viability assay, colorectal cancer cells Caco-2. In kind it is cell-based, human. Conditions: for SI, Caco-2: CC50 CCD 841 CoTr / CC50 Caco-2; for CC50: Homo sapiens, Caco-2, MTT, 24 h, read-out: CC50 ± SD, Caco-2. As to the method: The cytotoxic effects of ten newly synthesized N-Mannich bases were assessed on the normal human intestinal epithelium (CCD 841 CoTr) and cancer cell lines: gastric cancer (EPG) and four colorectal cancer lines (Caco-2, LoVo, LoVo/Dx, and HT-29). Cell viability was evaluated using the MTT assay in accordance with Annex C of ISO 10993-5 [33].
The biological activity of the newly synthesized compounds was assessed in the context of anticancer activity. For this purpose, several gastrointestinal cancer lines were selected: gastric cancer (EPG 257, which belongs to the collection of the Laboratory of Cell Culture and Advanced Therapy at the University of Environmental and Life Sciences in Wrocław), and four colorectal cancer cell lines (LoVo, Caco-2, and HT-29) were obtained from the European Collection of Authenticated Cell Cultures (ECACC) and were delivered by Sigma-Aldrich, a certified distributor for the biobank. Additionally, LoVo cells were used to develop a doxorubicin-resistant subline, referred to as LoVo/Dx. Resistance was induced through gradual adaptation to increasing concentrations of doxorubicin, starting from 0.1 µg/mL and incrementally raised to 0.8 µg/mL. After reaching the maximum concentration, the cells were maintained in a medium containing 0.4 µg/mL doxorubicin for a period of three months to stabilize the resistant phenotype. […] The resulting LoVo/Dx subline, resistant to doxorubicin, was cultured in DMEM/F-12 medium and utilized in assays evaluating the effectiveness of novel compounds against multidrug-resistant cancer cells. […] The non-cancerous cell control was normal colonic epithelial cells (CCD 841 CoTr from American Type Culture Collection, (ATCC, Manassas, VA, USA)). Cell cultures were performed under standard conditions (5% CO2, 95% humidity, and 37 °C). Each cell line was cultured in the recommended medium: (1) HT-29 in McCoy’s 5a, (2) Caco-2 in Minimal Essential Medium (MEM, Biological Industries, Beit Haemek, Israel), (3) CCD 841 CoTr in Dulbecco’s Modified Eagle Medium (DMEM, Biological Industries, Beit Haemek, Israel), (4) LoVo in Dulbecco’s Modified Eagle Medium/F-12 (DMEM/F-12; Biological Industries, Beit Haemek, Israel), (5) LoVo/Dx in DMEM/F-12, and (6) EPG in DMEM. Culture media were supplemented with 10% fetal bovine serum (FBS, Sigma-Aldrich, Darmstadt, Germany) and antibiotics (penicillin and streptomycin; Sigma-Aldrich, Darmstadt, Germany). For assays, trypsinized (TrypLE solution, Thermo Fisher Scientific, Waltham, MA, USA) cells were seeded at appropriate densities of 10,000 cells per well for MTT and determination of apoptotic and necrotic cell numbers; 30,000 cells per well for the rhodamine accumulation assay; and 500,000 cells per well for ELISA tests.
The cytotoxicity of the compounds and drugs used as controls was assessed using the MTT assay. The assay also included a DMSO control. After seeding and allowing the cells to adhere overnight, they were treated with the tested compounds and drugs for another 24 h. After this time, the supernatant was removed, and a 1 mg/mL MTT solution was added for 2 h in 5% CO2, 95% humidity, at 37 °C. The supernatant was then removed, and isopropanol was added to dissolve the purple crystals over 30 min by shaking. Absorbance was measured at 570 nm in a Multiskan GO microplate reader (Thermo Fisher Scientific; Waltham, MA, USA). All reagents used for the assays were purchased from Sigma-Aldrich, Darmstadt, Germany.
Biological assays were performed in three independent replicates, each involving four samples. ELISA determinations were repeated three times.
In general terms: Tetrazolium assays rely on reduction of a dye to a coloured formazan, in cell work by metabolically active cells.

A further series deals with HT-29 cells. Briefly: Annexin-V/propidium iodide apoptosis and necrosis detection. The series is classed as cell-based, human. To be noted: HT-29, 1 µM, 24 h. The method, then: To evaluate the impact of new compounds on apoptosis induction, an annexin-V/propidium iodide staining assay was conducted on HT-29 cells, with doxorubicin serving as the positive control (Figure 4). The tested compounds 5 and 6, at a concentration of 1 µM, increased the number of cells in the apoptosis phase, although to a lesser extent than doxorubicin.
The assessment of cell death—apoptosis was performed after 24 h of incubation of HT-29 cells with a concentration of 1 µM of compounds 5 and 6 and doxorubicin. Fluorescein-conjugated annexin V in PBS with Mg^2+ and Ca^2+ ions (Thermo Fisher Scientific, Waltham, MA, USA) was then used. To ensure that all cells (both live and dead) were counted, 10 µM Hoechst (Sigma-Aldrich, Darmstadt, Germany) was added to stain cell nuclei. The culture was then incubated for 20 min at 37 °C. Apoptosis analysis was performed under a fluorescence microscope (EVOS FL, Thermo Fisher Scientific, Waltham, MA, USA), using 10× magnification, in triplicate for each compound. The open-source ImageJ platform with the Fiji plugin [57] was used to analyze the number of all cells, as well as those in the apoptotic and necrotic phases.
The fluorescence signal was interpreted as follows: green fluorescence indicated apoptotic cells (annexin V staining), red fluorescence corresponded to necrotic cells, and blue fluorescence (Hoechst staining) marked all cell nuclei.

The next series concerns p53. Description: p53 Human ELISA on HT-29 cell lysates. In kind it is cell-based. Conditions: HT-29, 1 µM, 24 h. The method, then: To check the effect of compound 6 on the level of p-53 and caspase-3 protein, another test was performed on HT-29 cells, taking doxorubicin as the reference drug.
To assess the level of caspase-3 and p53 protein, HT-29 cell lysates were used after 24 h of incubation with compounds 5 and 6. The supernatant was collected in the prepared and labeled tubes, the cells from the wells were scraped, and the wells were washed with cold PBS, which was also collected. The tubes were then centrifuged, the supernatant was removed, and the cell pellet was lysed in a cell extraction vessel for 30 min on ice, with […] every 10 min. The lysate was transferred to centrifuge tubes and centrifuged at 13,000 rpm for 10 min at 4 °C. The supernatant was transferred to clean tubes in a microcentrifuge.
The following kits were used: Human Caspase-3 (active) ELISA Kit (KHO1091) and p53 Human ELISA Kit (BMS256), used following the manufacturer’s instructions. ELISA kits were purchased from Thermo Fisher Scientific (Waltham, MA, USA). The absorbance was measured using a Multiskan GO microplate reader (Thermo Fisher Scientific, Waltham, MA, USA) at wavelengths specific to each kit, as recommended by the manufacturer.
For orientation: An ELISA detects its analyte on a solid surface through an enzyme-linked reagent.

In another series the test system is interleukin-1β. Description: IL-1β ELISA in HT-29 supernatant. The series is classed as cell-based, human. To be noted: HT-29, 1 µM. From the text: The different effects of the anticancer compound on IL-6 and IL-1β can be explained by the different regulatory mechanisms of these cytokines and the distinct signaling pathways targeted by the therapy. The reduction in IL-6 levels may be due to the direct action of the compound on pathways promoting this cytokine or its ability to inhibit inflammatory processes specific to IL-6. In contrast, the increase in IL-1β levels might result from the inflammatory response to cellular stress or apoptosis induced by the therapy, leading to activation of the immune system and increased production of IL-1β.
Cytokine levels (IL-1β and IL-6) in the supernatant were measured for HT-29 and EPG cells treated with compounds 5 and 6, according to the instructions provided by the manufacturer of the ELISA kits were purchased from Abcam (Cambridge, UK). The absorbance was measured using a Multiskan GO microplate reader (Thermo Fisher Scientific, Waltham, MA, USA) at wavelengths specific to each kit, as recommended by the manufacturer.

SMILES strings stand for the structures. A value given as a limit tells only on which side of the number the result lay.

In general, CC50 refers to the concentration giving 50% cytotoxicity. As for `Cc1cc(C)c(C(=O)NCc2nn(CN3CCN(c4cccc(Cl)c4)CC3)c(=S)n2-c2ccccc2)c(S)n1` [Compound 5, 4,6-dimethyl-N-[(4-phenyl-5-thioxo-2-{[4-(3-chlorophenyl)piperazinyl]methyl}-4,5-dihydro-1H-1,2,4-triazol-3-yl)methyl]-2-sulfanylpyridine-3-carboxamide], in the series on Caco-2 cells, the “SI, Caco-2” value is reported as 0.97 and the CC50 was found to be 228 ± 5.2 µM. In addition, in the series on HT-29 cells, the “Increase in apoptotic cells compared to untreated cells” value is over 3.5 fold and the “Number of necrotic cells” value is given as “significant rise”.
For the compound `Cc1ccc(N2CCN(Cn3nc(CNC(=O)c4c(C)cc(C)nc4S)n(-c4ccccc4)c3=S)CC2)cc1` [Compound 6], in the series with Caco-2 cells, the “SI, Caco-2” value was found to be 5.16 and the CC50 worked out at 75.1 ± 5.1 µM. In addition, the “Increase in apoptotic cells compared to untreated cells” value with HT-29 cells is about 5 fold. The “p53 Conc. ± SD” value in the series with p53 worked out at 3.50 ± 0.07 U/mL. Also, the “IL-1β Conc. ± SD” value in the series with interleukin-1β amounted to 0.51 ± 0.11 pg/mL.
